Data published in patent publication US7312330B2, “Bicycloheteroarylamine compounds as ion channel ligands and uses thereof” (Renovis, Inc., priority 2003, dated 2007).

Target: hVR1 (Homo sapiens, UniProt Q8NER1)
Experiment: Calcium imaging assay (Fura2) of VR1 antagonists, proton stimulation
Type: cell-based
Details: HEK 293 cells expressing hVR1; for % Inhibition @ 1 μM: calcium ion influx induced by proton stimulation (pH 5.7); for IC50: calcium ion influx induced by proton stimulation
From the text: VR1 protein is a heat-gated cation channel that exchanges about 10 calcium ions for every sodium ion resulting in neuronal membrane depolarization and elevated intracellular calcium ion levels. Therefore the functional activity of compounds at the VR1 receptor may be determined by measuring changes in intracellular calcium levels in 293 cells expressing capsaicin-insensitive VR1 receptor variants. A dual wavelength ratiometric dye, Fura2, was used as an indicator of relative levels of calcium ions in a 96 well format using a bench top scanning fluorometer with integrated fluidics and temperature control (Flex Station, Molecular Devices).
A dual wavelength ratiometric dye, Fura2, was used as an indicator of relative levels of [Ca2+] in a 96 well format using a bench top scanning fluorometer with integrated fluidics and temperature control (Flex Station, Molecular Devices).
HEK 293 cells expressing hVR1 were grown on PDL coated 96-well black-walled plates, in the presence of a DMEM medium containing 5% Penstrep, 5% Glutamax, 200 ug/mL Hygromycin, 5 μg/mL Blasticide and 10% heat inactivated FBS. Prior to assay, the cells were loaded with 5 μg/mL Fura2 in normal saline solution at 37° C. for 40 minutes. Cells were then washed with normal saline to remove the dye.
The assay consists of two stages; a pre-treatment phase followed by a treatment phase. In the pretreatment phase, 50 μl of a compound solution was added to the cells. Immediately following, 50 μl of the test compound in the presence of agonist (a saline solution plus 10 mM citric acid bufferd to pH 5.7 with HCl) was added. Fura2 was excited at […] to indicate relative calcium concentration. Changes in wavelength measurements were made throughout the course of the experiment in 4 second intervals over a period of 3 minutes. The fluorescence ratio from the excitations at […] was recorded for analysis. Responses were measured as peak fluorescence ratio after compound-agonist addition minus baseline fluorescence ratio prior to treatment and were calculated for each concentration tested using the SoftMaxPro software. Data was expressed as percentage inhibition calculated as follows: […]
A dose response curve was then determined, from which the ID50 of each compound was calculated.

hVR1, sequence (Q8NER1 whole entry): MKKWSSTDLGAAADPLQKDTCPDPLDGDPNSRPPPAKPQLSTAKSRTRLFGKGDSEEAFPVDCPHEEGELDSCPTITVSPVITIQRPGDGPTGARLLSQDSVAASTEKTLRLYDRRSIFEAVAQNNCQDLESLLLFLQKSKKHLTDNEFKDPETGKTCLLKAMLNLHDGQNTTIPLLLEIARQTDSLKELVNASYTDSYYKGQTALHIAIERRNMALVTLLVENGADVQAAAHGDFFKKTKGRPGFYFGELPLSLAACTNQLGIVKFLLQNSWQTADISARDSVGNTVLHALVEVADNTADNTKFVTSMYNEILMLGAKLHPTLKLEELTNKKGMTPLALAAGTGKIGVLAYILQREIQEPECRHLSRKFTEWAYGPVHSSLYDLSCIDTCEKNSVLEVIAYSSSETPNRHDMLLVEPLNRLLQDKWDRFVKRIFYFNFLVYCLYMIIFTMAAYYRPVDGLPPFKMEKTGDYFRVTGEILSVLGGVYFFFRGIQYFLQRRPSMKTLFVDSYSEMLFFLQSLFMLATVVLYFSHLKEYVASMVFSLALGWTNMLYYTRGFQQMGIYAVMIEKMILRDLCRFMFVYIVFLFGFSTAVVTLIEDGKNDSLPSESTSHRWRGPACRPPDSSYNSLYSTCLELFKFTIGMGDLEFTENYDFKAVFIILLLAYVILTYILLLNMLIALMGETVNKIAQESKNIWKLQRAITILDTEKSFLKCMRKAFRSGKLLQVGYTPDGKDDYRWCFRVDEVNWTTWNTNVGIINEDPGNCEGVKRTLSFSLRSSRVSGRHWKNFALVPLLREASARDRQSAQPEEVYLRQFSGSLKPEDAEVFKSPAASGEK

IC50 [µM]	Structure (SMILES)	% Inhibition @ 1 μM
0.101 to 0.5	Fc1cccnc1N1CCc2c(ncnc2Nc2ccc(C(F)(F)F)cc2)C1 [Example 11, [7-(3-Fluoro-pyridin-2-yl)-5,6,7,8-tetrahydro-pyrido[3,4-d]pyrimidin-4-yl]-(4-trifluoromethyl-phenyl)-amine]	++++ (compound exhibited 76% or greater inhibition of calcium ion influx induced by proton stimulation)
–	CC(C)(C)c1ccc(Nc2nc(CN3CCOCC3)nc3c2CCN(c2ncccc2Cl)C3)cc1 [Example 13, (4-tert-Butyl-phenyl)-[7-(3-chloro-pyridin-2-yl)-2-morpholin-4-ylmethyl-5,6,7,8-tetrahydro-pyrido[3,4-d]pyrimidin-4-yl]-amine]	++ (compound exhibited 26-50% inhibition of calcium ion influx induced by proton stimulation)
–	CS(=O)(=O)c1cccnc1N1CCc2c(ncnc2Nc2ccc(OC(F)F)cc2)C1 [Example 14, N-(4-(Difluoromethoxy)phenyl)-5,6,7,8-tetrahydro-7-(3-(methylsulfonyl)pyridin-2-yl)pyrido[3,4-d]pyrimidin-4-amine]	+ (compound exhibited 0-25% inhibition of calcium ion influx induced by proton stimulation)
0.101 to 0.5	FC(F)Oc1ccc(Nc2ncnc3c2CCN(c2ncccc2Cl)C3)cc1 [Example 15, 7-(3-Chloropyridin-2-yl)-N-(4-(difluoromethoxy)phenyl)-5,6,7,8-tetrahydropyrido[3,4-d]pyrimidin-4-amine]	+++ (compound exhibited 51-75% inhibition of calcium ion influx induced by proton stimulation)
> 1	CC(C)S(=O)(=O)c1cccnc1N1CCc2c(ncnc2Nc2ccc(C(F)(F)F)cc2)C1 [Example 16, N-(4-(Trifluoromethyl)phenyl)-5,6,7,8-tetrahydro-7-(3-(isopropylsulfonyl)pyridin-2-yl)pyrido[3,4-d]pyrimidin-4-amine]	–
–	Nc1nc2c(c(Nc3ccc(C(F)(F)F)cc3)n1)CCN(c1ncccc1Cl)C2 [Example 17, 7-(3-Chloro-pyridin-2-yl)-N^4-(4-trifluoromethyl-phenyl)-5,6,7,8-tetrahydro-pyrido[3,4-d]pyrimidine-2,4-diamine]	++++ (compound exhibited 76% or greater inhibition of calcium ion influx induced by proton stimulation)
> 1	Clc1cccnc1N1CCc2c(ncnc2Nc2ccccc2)C1 [Example 18, 7-(3-Chloropyridin-2-yl)-N-(phenyl)-5,6,7,8-tetrahydropyrido[3,4-d]pyrimidin-4-amine]	+ (compound exhibited 0-25% inhibition of calcium ion influx induced by proton stimulation)
> 1	Fc1ccc(Nc2ncnc3c2CCN(c2ncccc2Cl)C3)cc1 [Example 19, 7-(3-Chloropyridin-2-yl)-N-(4-fluorophenyl)-5,6,7,8-tetrahydropyrido[3,4-d]pyrimidin-4-amine]	+ (compound exhibited 0-25% inhibition of calcium ion influx induced by proton stimulation)
0.101 to 0.5	CS(=O)(=O)c1cccnc1N1CCc2c(ncnc2Nc2ccc(C(F)(F)F)nc2)C1 [Example 21]	+++ (compound exhibited 51-75% inhibition of calcium ion influx induced by proton stimulation)

Structure (SMILES)	IC50 [µM]	% Inhibition @ 1 μM
CC(C)(C)c1ccc(Nc2ncnc3c2CCN(c2ncccc2C(F)(F)F)C3)cc1.Cl [Example 4, N-(4-tert-Butylphenyl)-7-(3-(trifluoromethyl)pyridin-2-yl)-5,6,7,8-tetrahydropyrido[3,4-d]pyrimidin-4-amine hydrochloride]	< 0.1	++++ (compound exhibited 76% or greater inhibition of calcium ion influx induced by proton stimulation)
COCc1nc2c(c(Nc3ccc(C(C)(C)C)cc3)n1)CCN(c1ncccc1C(F)(F)F)C2.Cl [Example 6, (4-tert-Butyl-phenyl)-[2-methoxymethyl-7-(3-trifluoromethyl-pyridin-2-yl)-5,6,7,8-tetrahydro-pyrido[3,4-d]pyrimidin-4-yl]-amine hydrochloride]	< 0.1	++++ (compound exhibited 76% or greater inhibition of calcium ion influx induced by proton stimulation)
